Calls of active or inactive are those of the source. The rule behind the calls is not given here.

In assay [1] the test system is K562. The assay can be described thus: Induction of reactive oxygen species in human K562 cells at >= 50 uM after 48 hrs by flow cytometry analysis. It is filed as functional, cell-based.
Assay [2] deals with Jurkat. The assay can be described thus: Induction of reactive oxygen species in human Jurkat cells at >= 50 uM after 48 hrs by flow cytometry analysis. It is filed as functional, cell-based. Background: A flow cytometer gives signals particle by particle.
For another assay, the species on record is Mus musculus. The assay can be described thus: Induction of apoptosis in C57BL/6 mouse liver mitochondrial assessed as cytochrome c release after 1 hr by immunoblotting method. It is filed as functional. Conditions: Mitochondria. Background: In western blotting, separated proteins are transferred to a membrane and probed.
In assay [3] the test system is Jurkat. The assay can be described thus: Induction of apoptosis in human Jurkat cells after 48 hrs at 50 uM by annexin-V-FITC/PI staining based flow cytometry. Type of assay: functional, cell-based.
For assay [4], the system named is K562. The assay can be described thus: Induction of apoptosis in human K562 cells after 48 hrs at 50 uM by annexin-V-FITC/PI staining based flow cytometry. It is filed as functional, cell-based.
Assay [5] concerns HT-29. The assay can be described thus: Antiproliferative activity against human HT-29 cells after 96 hrs by MTT assay. It is filed as functional, cell-based. Conditions: HT-29, 96 h. In general terms: Formazan colour is commonly taken as a measure of viable cells.
Assay [6] relates to HT-29. The assay can be described thus: Antiproliferative activity against human HT-29 cells after 72 hrs by MTT assay. Type of assay: functional, cell-based. Conditions: HT-29, 72 h.
Assay [7] concerns Jurkat. The assay can be described thus: Induction of apoptosis in human Jurkat cells assessed as increase in cleaved PARP-1 level at 50 and 100 uM after 48 hrs by immunoblotting. Type of assay: functional, cell-based.
The test system of another assay is HepG2. The assay can be described thus: Antiproliferative activity against human HepG2 cells after 48 hrs by MTT assay. Type of assay: functional, cell-based. Conditions: HepG2, 48 h.
For assay [8], the system named is HEK293. The assay can be described thus: Antiproliferative activity against human HEK293 cells incubated with 2000 cells per well after 48 hrs by MTT assay. It is filed as cell-based. The following applies: HEK293, 48 h.
Assay [9] has as its system K562. The assay can be described thus: Induction of apoptosis in human K562 cells assessed as late apoptotic cells at 25 uM after 48 hrs by annexin-V-FITC/PI staining based flow cytometry. It is filed as functional, cell-based.
The test system of assay [10] is Jurkat. The assay can be described thus: Induction of apoptosis in human Jurkat cells assessed as early apoptotic cells at 25 uM after 48 hrs by annexin-V-FITC/PI staining based flow cytometry. Type of assay: functional, cell-based.
Another assay concerns MCF7. The assay can be described thus: Antiproliferative activity against human MCF7 cells after 48 hrs by MTT assay. Type of assay: functional, cell-based. The following applies: MCF7, 48 h.
The subject of assay [11] is Jurkat. The assay can be described thus: Induction of apoptosis in human Jurkat cells assessed as late apoptotic cells at 25 uM after 48 hrs by annexin-V-FITC/PI staining based flow cytometry. Type of assay: functional, cell-based.
Assay [12] deals with K562. The assay can be described thus: Induction of apoptosis in human K562 cells assessed as early apoptotic cells at 25 uM after 48 hrs by annexin-V-FITC/PI staining based flow cytometry. Type of assay: functional, cell-based.
Assay [13] has as its system Jurkat. The assay can be described thus: Induction of reactive oxygen species in human Jurkat cells after 48 hrs by flow cytometry analysis. Type of assay: functional, cell-based.
Assay [14] relates to K562. The assay can be described thus: Induction of reactive oxygen species in human K562 cells after 48 hrs by flow cytometry analysis. Type of assay: functional, cell-based.
The subject of assay [15] is K562. The assay can be described thus: Induction of apoptosis in human K562 cells assessed as early apoptotic cells at 10 uM after 48 hrs by annexin-V-FITC/PI staining based flow cytometry. Type of assay: functional, cell-based.
The test system of assay [16] is Jurkat. The assay can be described thus: Induction of apoptosis in human Jurkat cells assessed as increase in cleaved PARP-1 level at 20 uM after 48 hrs by immunoblotting. It is filed as functional, cell-based.
The test system of assay [17] is Jurkat. The assay can be described thus: Induction of apoptosis in human Jurkat cells assessed as early apoptotic cells at 10 uM after 48 hrs by annexin-V-FITC/PI staining based flow cytometry. Type of assay: functional, cell-based.
Assay [18] concerns HEK293. The assay can be described thus: Antiproliferative activity against human HEK293 cells incubated with 3000 cells per well after 48 hrs by MTT assay. The following applies: HEK293, 48 h. It is filed as cell-based.

Consider `O=C(c1ccc(Cl)cc1)n1c2ccccc2c2nnsc21`, for which the result with K562 [1], in the assay with Jurkat [2], in the assay on Jurkat [3], in the assay with K562 [4] and in the assay with Jurkat [7] was Active. The result in the assay listed under Mus musculus was inactive. For the same compound, the EC50 in the assay on HT-29 [5] came to 52.3 µM; in the assay on HT-29 [6] it was 49.4 µM; in the assay with HepG2, 60.2 µM.
On to `Clc1ccc2[nH]c3snnc3c2c1`, for which the EC50 came out at 24.4 µM in the assay on HEK293 [8], 31.2 µM with MCF7, 33.8 µM with HT-29 [5] and 26.2 µM in the assay on HT-29 [6]. The result in the assay on K562 [9], in the assay with Jurkat [10], with Jurkat [11] and in the assay with K562 [12] was Active. For the same compound, the Activity result with Jurkat [13] and in the assay on K562 [14] was “Dose-dependent effect” in each case.
Take `COc1ccc(S(=O)(=O)n2c3ccccc3c3nnsc32)cc1`: the EC50 was 15.3 µM with HEK293 [8]; 12.9 µM with MCF7; 6.97 µM with HT-29 [5]; 7.97 µM with HT-29 [6]; 12.3 µM in the assay on HEK293 [18]. Further, the outcome in the assay filed under Mus musculus was inactive. The outcome in the assay with K562 [15], in the assay with Jurkat [16] and in the assay on Jurkat [17] was Active. In addition, the Activity result in the assay on Jurkat [13] and in the assay with K562 [14] was “Dose-dependent effect” in each case.

Usually EC50 stands for the midpoint of the concentration-response curve. High values mean lower potency in that assay, low ones higher potency in that assay.

These data come from ChEMBL document CHEMBL3751788, “The new facile and straightforward method for the synthesis of 4H-1,2,3-thiadiazolo[5,4-b]indoles and determination of their antiproliferative activity” (Eur J Med Chem, 2016).
